In patent US20190038611A1, “Novel CYP34A-Specific Inhibitors and Methods of Using Same” (THE REGENTS OF THE UNIVERSITY OF CALIFORNIA, priority 2015, published 2019):
“And” between values parts separate entries of the source, which are not always exact repeats. Equal values may be shown once. Read-outs that look alike come from different tables or passages of the source.

Key:
CYP3A4 [1] = target: T1, CYP3A4 (Homo sapiens, UniProt P08684); assay: Spectral binding titrations (equilibrium titration of CYP3A4, spectral dissociation constant); design: 4-histidine tag (C); made in house; host or cells: E. coli
T1 sequence (P08684 with tags, fused parts or gaps): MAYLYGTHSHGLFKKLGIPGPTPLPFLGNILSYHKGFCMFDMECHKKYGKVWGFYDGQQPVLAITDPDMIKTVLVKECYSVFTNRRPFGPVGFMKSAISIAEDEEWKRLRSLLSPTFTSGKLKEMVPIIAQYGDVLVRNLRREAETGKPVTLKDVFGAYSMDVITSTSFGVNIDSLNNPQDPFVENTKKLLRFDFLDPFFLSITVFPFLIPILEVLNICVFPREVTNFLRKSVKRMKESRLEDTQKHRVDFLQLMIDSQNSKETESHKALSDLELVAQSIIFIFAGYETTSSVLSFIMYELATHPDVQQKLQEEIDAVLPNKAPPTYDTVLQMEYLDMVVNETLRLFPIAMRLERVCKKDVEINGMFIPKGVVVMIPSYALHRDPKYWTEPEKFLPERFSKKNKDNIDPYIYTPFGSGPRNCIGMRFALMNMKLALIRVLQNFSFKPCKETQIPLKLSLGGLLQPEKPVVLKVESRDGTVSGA
Protocol: Left insets depict difference spectra between the ligand-free and inhibitor-bound forms. Right insets are plots of the absorbance change versus inhibitor concentration, based on which the Kd values were calculated.

CYP3A4 [2] = target: T1, CYP3A4; assay: Inhibition of BFC O-debenzylation activity of CYP3A4 in a reconstituted system with rat cytochrome P450 reductase
Protocol: (§1) Thermal denaturation experiments were conducted as previously described (Sevrioukova and Poulos, 2013 J. Med. Chem. 56: 3733-41) to compare ligand-dependent changes in CYP3A4 stability. The inhibitory potency of the investigated compounds on the 7-benzyloxy-4-(trifluoromethyl)coumarin (BFC) O-debenzylation activity of CYP3A4 was evaluated fluorometrically in a reconstituted system with rat cytochrome P450 reductase (CPR). The reaction was carried out at room temperature in 100 mM phosphate buffer, pH 7.4, containing catalase and superoxide dismutase (2 Units/ml each). A mixture of 1 μM CYP3A4 and 1 μM CPR was preincubated for 1 hour at room temperature and diluted by 20-fold with the assay buffer immediately before measurements. BFC (50 μM) and various concentrations of analogs were added to the protein mixture 2 minutes prior to the reaction initiation with 100 μM NADPH. Formation of 7-hydroxy-4-trifluoromethylcoumarin was followed in a Hitachi F100 fluorometer using λex=430 nm and λem=500 nm. IC50 values were derived from the [% activity] vs. [inhibitor] plots.

CYP3A4 [3] = target: T1, CYP3A4; assay: Kinetics of ligand binding to CYP3A4 (stopped flow); details: for kfast (rate constant for the fast phase of the binding reaction): saturating ligand concentrations, room temperature, 2 μM CYP3A4
Protocol: Kinetics of ligand binding to CYP3A4 was monitored at room temperature in 50 mM phosphate, pH 7.4, in a SX.18MV stopped flow apparatus (Applied Photophysics,
UK) after mixing 2 μM CYP3A4 with various concentrations of ligands. […] Kinetic data were analyzed using the program IgorPro (WaveMetrics, Inc).

CYP3A4 [4] = target: T1, CYP3A4; assay: Thermal denaturation (ligand-dependent changes in CYP3A4 melting temperature); format: binding; design: 4-histidine tag (C); made in house; host or cells: E. coli
Protocol: as §1

CYP3A4 [5] = target: T1, CYP3A4; assay: 442 nm peak in the absorbance spectrum of ligand-bound ferrous CYP3A4
CYP3A4 [6] = target: T1, CYP3A4
Protocol: as §1

CYP3A4 [7] = target: T1, CYP3A4; remark: listed apart in the source
[8] = 50 mM phosphate pH 7.4, 20% glycerol, 1 mM dithiothreitol, single site, read-out: Ks (spectral dissociation constant)
[9] = read-out: IC50 (concentration required for half-maximal inactivation of recombinant CYP3A4), BFC 50 μM, 100 μM NADPH, room temperature, pH 7.4

Structure (SMILES)	kfast (rate constant for the fast phase of the binding reaction) (CYP3A4 [3])	Kd (CYP3A4 [1]; [8]) [µM]	ΔTm (ligand-dependent changes in the melting temperature of CYP3A4) (CYP3A4 [4]) [°C]	442 nm absorption of the ferrous ligand-bound form of CYP3A4 (CYP3A4 [5])	IC50 (CYP3A4 [2]; [9])	further results
CC(C)(C)OC(=O)N[C@H](CN[C@@H](Cc1ccccc1)C(=O)NCCc1cccnc1)Cc1ccccc1 [Compound 01ERS089, N-BOC-Trp-S-N-Ph-Cys-CONH-Et-Pyr]	–	–	–	–	–	Kd (CYP3A4 [1]; calculated from plots of absorbance change versus inhibitor concentration (FIG. 37), read-out: Kd (binding affinity to CYP3A4)): 0.13 µM; IC50 (CYP3A4 [2]): 0.39 µM
CC(C)(C)OC(=O)NCCCCCC(=O)NCc1cccnc1 [Compound 4]	20 s⁻¹ and 20 ± 2 s⁻¹	105 ± 10	−0.2	considerably smaller	75 µM	–
NCCCCCC(=O)NCc1cccnc1 [Compound 5]	–	–	−0.2	–	1000 ± 150 µM	rate constants of monophasic binding reaction (CYP3A4 [3]): 0.5 to 0.8 s⁻¹; IC50 (CYP3A4 [6]): 1000 to 4000 µM; 442 nm absorption of the ferrous ligand-bound form of CYP3A4 (CYP3A4 [7]): undetectable; Kd (CYP3A4 [1]; two binding sites, read-out: KS, second of two binding sites): 4400 µM; Kd (CYP3A4 [1]; values derived from the two site saturation fit to a titration curve, two binding sites, read-out: Ks (spectral dissociation constant), two site saturation fit): 10 µM
CC(C)(C)OC(=O)N[C@H](CSCCC(=O)NCc1cccnc1)CC1CCCCC1 [Compound 11]	4.0 ± 0.2 s⁻¹	10 ± 1	−2 ± 0.4	considerably smaller	30 µM	–
CC(C)(C)OC(=O)N[C@H](CSCCC(=O)NCc1cccnc1)Cc1ccccc1 [Compound 15a]	1.7 s⁻¹ and 1.7 ± 0.2 s⁻¹	0.9 ± 0.1	−1 ± 0.2	pronounced	0.5 µM and 0.52 µM	–
CC(C)(C)OC(=O)N[C@H](CSCCC(=O)NCc1cccnc1)Cc1c[nH]c2ccccc12 [Compound 15b]	8.0 ± 1.5 s⁻¹	0.5 ± 0.1	0.2	pronounced	0.2 µM and 0.21 µM	change of CYP3A4 Tm / thermal stability upon complex formation (CYP3A4 [4]): slightly increased
NCCc1ccccn1 [aminoethylpyridine, reference compound]	0.6 ± 0.1 s⁻¹	2500 ± 200	−0.1	undetectable	5000 ± 600 µM	–
c1ccncc1 [pyridine, reference compound]	0.5 ± 0.1 s⁻¹	4500 ± 400	0	undetectable	–	IC50 (CYP3A4 [2]; IC50 (concentration required for half-maximal inactivation of recombinant CYP3A4), BFC 50 μM, 100 μM NADPH, room temperature, pH 7.4): 4000 ± 500 µM; IC50 (CYP3A4 [2]; IC50 on the BFC debenzylation activity of CYP3A4, one range given for pyridine, aminoethylpyridine and 5 together): 1000 to 4000 µM
